Values after ≈ are worked out from the molar mass of the structure shown. Where two headings read alike, the source gives them in different places.
How the values were obtained:
[1] = tested on: community-acquired methicillin-resistant S. aureus (MRSA-CA); experiment: In vitro MIC against isolates of MRSA-CA; format: cell-based, Staphylococcus aureus; conditions: for MIC50 / MIC90: Staphylococcus aureus
[2] = tested on: hospital-associated methicillin-resistant S. aureus (MRSA-HA); experiment: In vitro MIC against isolates of MRSA-HA; format: cell-based, Staphylococcus aureus; conditions: for MIC50 / MIC90: Staphylococcus aureus
[3] = tested on: methicillin-sensitive S. aureus (MSSA); experiment: In vitro MIC against isolates of MSSA; format: cell-based, Staphylococcus aureus; conditions: for MIC Range / MIC50 / MIC90: MSSA (34 isolates); for MIC50 / MIC90: Staphylococcus aureus; for MIC90: read-out: MIC90
[4] = tested on: Chlamydia trachomatis; experiment: Susceptibility testing (MIC, MBC) of 10 isolates of C. trachomatis in HEp-2 cells; format: cell-based
[5] = tested on: Chlamydia trachomatis; experiment: In vitro susceptibility testing of Chlamydia trachomatis in HEp-2 cells (first study); format: cell-based; conditions: Chlamydia trachomatis, C. trachomatis strains, read-out: MIC at which 90% of the strains were inhibited (MIC90)
[6] = tested on: Chlamydia pneumoniae; experiment: Susceptibility testing (MIC, MBC) of 10 isolates of C. pneumoniae in HEp-2 cells; format: cell-based
[7] = tested on: S. aureus; experiment: In vitro MIC testing, antibacterial spectrum of activity; format: cell-based, Staphylococcus aureus; conditions: for MIC50 / MIC90: Staphylococcus aureus; for MIC50: read-out: MIC50; for MIC90: read-out: MIC90
[8] = tested on: S. haemolyticus; experiment: as above; format: cell-based; conditions: Staphylococcus haemolyticus, S. haemolyticus (33 isolates)
[9] = tested on: S. epidermidis; experiment: as above; format: cell-based, Staphylococcus epidermidis; conditions: for MIC50 / MIC90: Staphylococcus epidermidis; for MIC50: read-out: MIC50; for MIC90: read-out: MIC90
[10] = tested on: K. pneumoniae; experiment: as above; format: cell-based; conditions: K. pneumoniae (31 isolates)
[11] = tested on: E. faecium; experiment: as above; format: cell-based; conditions: Enterococcus faecium; for MIC50: read-out: MIC50; for MIC90: read-out: MIC90
[12] = tested on: Salmonella Spp.; experiment: as above; format: cell-based; conditions: Salmonella
[13] = tested on: P. mirabilis; experiment: as above; format: cell-based; conditions: Proteus mirabilis; P. mirabilis (30 isolates)
[14] = tested on: E. cloacae; experiment: as above; format: cell-based; conditions: Enterobacter cloacae; E. cloacae (30 isolates)
[15] = tested on: P. aeruginosa; experiment: as above; format: cell-based; conditions: P. aeruginosa (11 isolates)
[16] = tested on: E. faecalis; experiment: as above; format: cell-based; conditions: E. faecalis [VSE] (31 isolates)
[17] = tested on: E. coli; experiment: as above; format: cell-based; conditions: Escherichia coli
[18] = MRSA, S. aureus [MRSA] (31 isolates)
[19] = MSSA, S. aureus [MSSA] (32 isolates)
[20] = S. epidermidis [MSSE] (31 isolates)
[21] = S. epidermidis [MRSE] (32 isolates)

In the case of CC(=O)NC[C@H]1CN(c2ccc(N3CCOCC3)c(F)c2)C(=O)O1 [Linezolid], the “MIC Range” value ([1]; MRSA-CA (33 isolates)) is reported as 2 to 4 µg/mL, the MIC50 ([1]; MRSA-CA (33 isolates)) is reported as 2 µg/mL (≈ 5.93 µM) and the MIC90 ([1]; MRSA-CA (33 isolates)) is reported as 4 µg/mL (≈ 11.9 µM). For the same compound, the “susceptibility of the test organisms” value ([1]; all MRSA-CA test organisms) was “susceptible”, the “MIC Range” value ([2]; MRSA-HA (33 isolates)) was 2 to 4 µg/mL and the MIC50 ([2]; MRSA-HA (33 isolates)) was 2 µg/mL (≈ 5.93 µM). The MIC90 ([2]; MRSA-HA (33 isolates)) was 2 µg/mL (≈ 5.93 µM), the “susceptibility of the test organisms” value ([2]; all MRSA-HA organisms) was “susceptible” and the “MIC Range” value [3] was 2 to 4 µg/mL. For the same compound, the MIC50 [3] was 2 µg/mL (≈ 5.93 µM), the MIC90 [3] was 4 µg/mL (≈ 11.9 µM) and the “susceptibility of the test organisms” value ([3]; all MSSA test organisms) was “susceptible”.
In the case of C[C@H]1COc2c(N3CCN(C)CC3)c(F)cc3c(=O)c(C(=O)O)cn1c23 [Levofloxacin], the “MIC Range” value ([4]; 72 h) is reported as 0.125 to 0.5 µg/mL, the MIC50 ([4]; Chlamydia trachomatis, 72 h) is reported as 0.25 µg/mL (≈ 0.692 µM) and the MIC90 ([4]; Chlamydia trachomatis, 72 h) is reported as 0.25 µg/mL (≈ 0.692 µM). For the same compound, the MBC ([4]; Chlamydia trachomatis, after passage, read-out: MBC 90%) was 0.5 µg/mL (≈ 1.38 µM), the “MBC Range” value ([4]; after passage) was 0.125 to 1 µg/mL and the MIC90 [5] was 0.25 µg/mL (≈ 0.692 µM). The “MIC Range” value ([6]; 72 h) was 0.5 µg/mL (≈ 1.38 µM), the MIC50 ([6]; Chlamydia pneumoniae, 72 h) was 0.5 µg/mL (≈ 1.38 µM) and the MIC90 ([6]; Chlamydia pneumoniae, 72 h) was 0.5 µg/mL (≈ 1.38 µM). The MBC ([6]; Chlamydia pneumoniae, after passage, read-out: MBC 90%) was 2 µg/mL (≈ 5.53 µM), the “MBC 90%” value ([6]; after passage) was 2 µg/mL (≈ 5.53 µM) and the “MBC Range” value ([6]; after passage) was 0.125 to 2 µg/mL.
In the case of Cc1onc(-c2ccccc2)c1C(=O)N[C@@H]1C(=O)N2[C@@H]1SC(C)(C)[C@@H]2C(=O)O [Oxacillin], the “MIC Range” value ([7]; S. aureus [MSSA] (32 isolates)) is reported as 0.12 to 1 µg/mL, the MIC50 [7, 18] is reported as > 32 µg/mL and the MIC90 [7, 18] is reported as > 32 µg/mL. For the same compound, the MIC50 [7, 19] was 0.5 µg/mL (≈ 1.25 µM), the MIC90 [7, 19] was 1 µg/mL (≈ 2.49 µM) and the MIC50 ([1]; MRSA-CA (33 isolates)) was 32 µg/mL (≈ 79.7 µM). For the same compound, the MIC90 ([1]; MRSA-CA (33 isolates)) was > 32 µg/mL, the MIC50 ([2]; MRSA-HA (33 isolates)) was 32 µg/mL (≈ 79.7 µM) and the MIC90 ([2]; MRSA-HA (33 isolates)) was > 32 µg/mL. For the same compound, the MIC50 ([8]; read-out: MIC50) was 0.25 µg/mL (≈ 0.623 µM), the MIC90 ([8]; read-out: MIC90) was > 32 µg/mL and the “MIC Range” value [3] was 0.25 to 2 µg/mL. The MIC50 [3] was 0.25 µg/mL (≈ 0.623 µM), the MIC90 [3] was 0.5 µg/mL (≈ 1.25 µM) and the “MIC Range” value [9, 20] was 0.06 to 0.25 µg/mL. For the same compound, the MIC50 [9, 21] was 32 µg/mL (≈ 79.7 µM), the MIC90 [9, 21] was > 32 µg/mL and the MIC50 [9, 20] was 0.12 µg/mL (≈ 0.299 µM). For the same compound, the MIC90 [9, 20] was 0.25 µg/mL (≈ 0.623 µM).
CC1(C)S[C@@H]2[C@H](NC(=O)[C@H](N)c3ccccc3)C(=O)N2[C@H]1C(=O)O [Ampicillin] was tested, and the “MIC Range” value [10] was >64 µg/mL, the MIC50 ([10]; Klebsiella pneumoniae) was > 64 µg/mL and the MIC90 ([10]; Klebsiella pneumoniae) was > 64 µg/mL. The MIC50 ([11]; E. faecium [VRE] (30 isolates)) was > 64 µg/mL, the MIC90 ([11]; E. faecium [VRE] (30 isolates)) was > 64 µg/mL and the MIC50 ([11]; E. faecium [VSE] (32 isolates)) was 64 µg/mL (≈ 183 µM). For the same compound, the MIC90 ([11]; E. faecium [VSE] (32 isolates)) was > 64 µg/mL, the MIC50 [12] was 1 µg/mL (≈ 2.86 µM) and the MIC90 [12] was > 64 µg/mL. For the same compound, the MIC50 [13] was 4 µg/mL (≈ 11.4 µM), the MIC90 [13] was > 64 µg/mL and the MIC50 [14] was 64 µg/mL (≈ 183 µM). For the same compound, the MIC90 [14] was > 64 µg/mL, the “MIC Range” value [15] was >64 µg/mL and the MIC50 ([15]; Pseudomonas aeruginosa) was > 64 µg/mL. For the same compound, the MIC90 ([15]; Pseudomonas aeruginosa) was > 64 µg/mL, the “MIC Range” value [16] was 0.5 to 8 µg/mL and the MIC50 ([16]; Enterococcus faecalis, read-out: MIC50) was 1 µg/mL (≈ 2.86 µM). For the same compound, the MIC90 ([16]; Enterococcus faecalis, read-out: MIC90) was 1 µg/mL (≈ 2.86 µM), the MIC50 [17] was > 64 µg/mL and the MIC90 [17] was > 64 µg/mL.
